Data: US20230116733A1, “NOVEL INDAZOLE DERIVATIVE AND USE THEREOF” (KOREA RESEARCH INSTITUTE OFCHEMICAL TECHNOLOGY, priority 2019, published 2023)
“Also recorded” adds a separate entry of the source. Structures can show the parent of a compound that is named as a salt. Where two headings read alike, the source gives them in different places.

Tests used:
[1] = test system: K562; assay: Assay for anticancer activity, cell viability (Cell Counting Kit-8); format: cell-based; conditions: K562 cells, 10 μM compound, 3 days
Procedure: (§1) Assay for anticancer activity was conducted as follows. Corresponding cancer cells were seeded at a density of 4,000 cells/well into 96-well plates and stabilized for 24 hours. Thereafter, the cells in each well were treated with 10 μM of the each of the compounds for 3 days. Then, cell viability was assayed using Cell Counting Kit-8 from Dojindo.

[2] = test system: U937; assay: as above; format: cell-based; conditions: U937 cells, 10 μM compound, 3 days
Procedure: as §1

[3] = molecular target: T1, TRIB2 (Homo sapiens, UniProt Q92519); assay: TRIB2 kinase activity assay (Eurofins, 33P-ATP filter binding); format: biochemical; parameters: purchased Eurofins
T1 sequence (Q92519 1-343): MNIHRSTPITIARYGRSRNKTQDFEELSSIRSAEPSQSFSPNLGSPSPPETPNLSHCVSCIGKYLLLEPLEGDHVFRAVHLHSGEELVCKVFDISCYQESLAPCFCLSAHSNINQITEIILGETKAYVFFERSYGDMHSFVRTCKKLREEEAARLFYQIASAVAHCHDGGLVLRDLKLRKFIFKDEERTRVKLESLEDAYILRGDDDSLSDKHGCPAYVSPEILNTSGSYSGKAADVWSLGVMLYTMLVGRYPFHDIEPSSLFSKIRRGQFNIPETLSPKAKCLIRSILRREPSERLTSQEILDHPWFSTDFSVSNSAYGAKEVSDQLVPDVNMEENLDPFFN
Procedure: TRIB2 kinase activity assay was conducted in Eurofins. […] Afterward, the reaction was terminated with 0.5% phosphoric acid.

[4] = test system: A549; assay: Assay for anticancer activity, cell viability (Cell Counting Kit-8); format: cell-based; conditions: A549 cells, 10 μM compound, 3 days
Procedure: as §1

[5] = test system: HepG2; assay: as above; format: cell-based; conditions: for Cell viability (% of Con. 10 μM) HepG2: HepG2 cells, 10 μM compound, 3 days
Procedure: as §1

[6] = molecular target: T1, TRIB2; assay: Phosphorylation of TRIB2 protein in liver cancer cells (FIG. 1); format: cell-based; parameters: endogenous in cells; host or cells: HepG2; conditions: liver cancer cell line HepG2, dose-dependent
[7] = test system: YAP; assay: p-YAP level in ovarian cancer cell line A2780 (FIG. 1); format: cell-based
[8] = test system: YAP; assay: Phosphorylation of YAP protein in liver cancer cells (FIG. 1); format: cell-based
[9] = human TRIB2, 15 μM gamma-33P-ATP, 120 minutes at room temperature, read-out: TRIB2 Kimase activity assay IC50

SMILES	Cell viability (% of Con. 10 μM) K562 [1]	Cell viability (% of Con. 10 μM) U937 [2]	IC50 [3, 9]	Cell viability (% of Con. 10 μM) A549 [4]	Cell viability (% of Con. 10 μM) HepG2 [5]	further results
O=C(NC1CCNCC1)c1n[nH]c2ccc(-c3cccnc3)cc12 [Compound 4, N-(piperidin-4-yl)-5-(pyridin-3-yl)-1H-indazole-3-carboxamide]	41 % of Con.	50 % of Con.	10 to 100 nM	–	–	–
O=C(NC1CCNCC1)c1n[nH]c2ccc(-c3cccnc3F)cc12 [Compound 2, 5-(2-fluoropyridin-3-yl)-N-(piperidin-4-yl)-1H-indazole-3-carboxamide]	16 % of Con.	12 % of Con.	10 to 100 nM	–	–	–
CC(C)(C)OC(=O)N1CCC(NC(=O)c2n[nH]c3ccc(-c4cccnc4F)cc23)CC1 [Compound 1, tert-butyl-4-(5-(2-fluoropyridin-3-yl)-1H-indazole-3-carboxamido)piperidine-1-carboxylate]	49 % of Con.	34 % of Con.	10 to 100 nM	–	–	–
O=C(Nc1ccncc1)c1n[nH]c2ccc(-c3cnn(C4CCNCC4)c3)cc12 [Compound 73, 5-(1-(piperidin-4-yl)-1H-pyrazol-4-yl)-N-(pyridin-4-yl)-1H-indazole-3-carboxamide hydrochloride]	–	–	–	49 % of Con.	36 % of Con.	IC50 [3]: 10 to 100 nM
O=C(Nc1ccncc1)c1n[nH]c2ccc(-c3cccnc3F)cc12 [Compound 17, 5-(2-fluoropyridin-3-yl)-N-(pyridin-4-yl)-1H-indazole-3-carboxamide]	–	–	1 to 10 nM	17 % of Con.	15 % of Con.	inhibition of the growth of liver cancer cell line HepG2 (in words) ([5]; HepG2): highly inhibitory; phosphorylation of TRIB2 protein [6]: decreases the phosphorylation; level of p-YAP [7]: reduce the level of p-YAP; also recorded: has an inhibitory activity against YAP; YAP protein degradation [8]: promote YAP protein degradation; inhibitory activity against YAP (in words) [8]: inhibitory activity against YAP; phosphorylation of YAP protein ([8]; liver cancer cell line HepG2, dose-dependent, FIG. 1): decreases the phosphorylation
CC(C)n1cc(-c2ccc3[nH]nc(C(=O)Nc4ccncc4)c3c2)cn1 [Compound 28, 5-(1-isopropyl-1H-pyrazol-4-yl)-N-(pyridin-4-yl)-1H-indazole-3-carboxamide]	–	–	10 to 100 nM	17 % of Con.	16 % of Con.	–
